One experiment addresses T1, Rec. human matriptase (Homo sapiens, UniProt Q9Y5Y6).
T1 construct: purchased R&D Systems
T1 sequence (Q9Y5Y6 615-855 limits assumed): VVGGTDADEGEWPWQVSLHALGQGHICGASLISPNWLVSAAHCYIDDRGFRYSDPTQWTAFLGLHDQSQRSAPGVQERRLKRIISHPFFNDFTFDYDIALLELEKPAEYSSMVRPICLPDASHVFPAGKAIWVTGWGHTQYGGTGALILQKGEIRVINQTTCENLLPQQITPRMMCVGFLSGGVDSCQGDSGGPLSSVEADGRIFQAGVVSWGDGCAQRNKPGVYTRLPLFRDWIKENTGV
Put plainly: Matriptase inhibition assay. The following applies: Table 10; read-out: Ki Matriptase. The experiment is classed as biochemical. The procedure, abridged: (§1)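 Assays run three times in duplicate at pH 8.0 (Tris-HCl, NaCl, CaCl2, Triton X-100). Rates of pNA or MCA release after enzyme–inhibitor equilibration at room temperature were fitted by non-linear regression to the Morrison equation for Ki.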

A further experiment has as its target T2, Human FXIa (Homo sapiens, UniProt P03951).
T2 construct: Human β-FXIIa was obtained from Molecular Innovations, together with human FXa, human FXIa, human α-thrombin, and human plasma kallikrein; purchased Molecular Innovations; host or cells: purified from human plasma
Put plainly: FXIa inhibition assay. Format: biochemical. Here is the method: (§2) The activity of acyclic and cyclic MCoFx1-5 and analogues thereof was assessed in competitive inhibition assays, as previously described in Swedberg et al. (2016) J Med Chem, 59: 7287-7292. Human β-FXIIa was obtained from Molecular Innovations, together with human FXa, human FXIa, human α-thrombin, and human plasma kallikrein. Human cationic trypsin and human plasmin were obtained from Sigma-Aldrich, and recombinant human matriptase was sourced from R&D Systems. Recombinant human urokinase (uPA) and recombinant human tissue plasminogen activator (tPA) were expressed in Expi293 cells, as previously described in Li et al. (2019) Chembiochem, 20: 46-50. FXIIa inhibition assays were performed in clear, low-binding 96-well plates using 250 μL (final volume) of assay buffer (0.1 M Tris-HCl pH 8.0, 0.1 M NaCl, 10 mM CaCl2 and 0.005% Triton X-100). Inhibitors were serially diluted and incubated with 10 nM FXIIa at room temperature to reach equilibrium. After adding 100 μM Ac-QRFR-pNA substrate (KM=162 μM), enzymatic activity was measured by monitoring release of the pNA moiety using a TECAN infinite M1000 Pro plate reader (A=405 nm, reading interval, 10 s; assay time course, 7 min). Assays were conducted in three times in duplicate. Substrate kinetic constants (Michaelis-Menten) and inhibition constants (Morrison K) were determined by non-linear regression using Prism 7 (GraphPad). Selectivity assays with off-target proteases were performed in a similar way, except that different concentrations of enzyme and substrate were used, as indicated in Table 16. For assays using a fluorescent substrate (peptide-4-methylcoumaryl-7-amide, MCA), black low-binding 96-well plates were used and activity was measured using a TECAN infinite M1000 pro plate reader (λex 360 nm, λem 460 nm, reading interval, 30 s; assay time course, 5-30 min).

Experiment [1] has as its target T3, biotinylated human β-FXIIa (Homo sapiens, UniProt P00748).
T3 construct: purchased Molecular Innovations
Put plainly: Surface plasmon resonance binding to FXIIa. How it is done: Binding kinetics of each peptide towards biotinylated human β-FXIIa (Molecular Innovations) and non-labelled zymogen FXII (Haematologic Technologies) were determined using a Biacore T200 machine (Cytiva). For β-FXIIa binding measurements, the running buffer was HBS-EP+(10 mM HEPES, 150 mM NaCl, 3 mM EDTA and 0.05% (v/v) surfactant P20, pH 7.4). Biotinylated β-FXIIa was immobilized on a Sensor Chip CAP (Cytiva) using Biotin CAPture Reagent (Cytiva). A series of concentrations of each peptide were injected as analyte and the binding kinetics were modelled using a 1:1 binding model. Regeneration of sensor surface was performed after each measurement cycle. For FXII binding measurements, the running buffer was PBST (137 mM NaCl, 2.7 mM KCl, 10 mM Na2HPO4, 1.8 mM KH2PO4, 0.05% Tween-20). Non-labelled FXII was immobilized on a Sensor Chip CM5 (Cytiva) using Amine Coupling Kit (Cytiva), achieving a final immobilization level of 2500 RU. Each peptide was flowed through immobilized FXII at 5 μM for 60 s and allowed dissociation for 150 s.
For orientation: Surface plasmon resonance follows binding to a sensor surface in real time, without labels.

The target in a further experiment is T4, Human β-FXIIa (Homo sapiens, UniProt P00748).
T4 construct: Human β-FXIIa was obtained from Molecular Innovations, together with human FXa, human FXIa, human α-thrombin, and human plasma kallikrein; purchased Molecular Innovations; host or cells: purified from human plasma
T4 sequence (P00748 373-615 limits assumed, other chains not shown): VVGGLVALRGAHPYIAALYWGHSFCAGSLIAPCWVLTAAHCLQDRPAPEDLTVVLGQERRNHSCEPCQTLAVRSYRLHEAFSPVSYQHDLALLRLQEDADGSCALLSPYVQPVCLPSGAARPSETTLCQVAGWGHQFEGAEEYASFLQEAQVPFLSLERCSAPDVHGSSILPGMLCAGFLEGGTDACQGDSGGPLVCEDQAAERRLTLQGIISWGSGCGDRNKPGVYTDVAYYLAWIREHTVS
As to the kind of experiment: FXIIa competitive inhibition assay, colorimetric substrate Ac-QRFR-pNA. Format: biochemical. The procedure, abridged: as §1

A further experiment deals with T5, Human thrombin (Homo sapiens, UniProt P00734).
T5 construct: Human β-FXIIa was obtained from Molecular Innovations, together with human FXa, human FXIa, human α-thrombin, and human plasma kallikrein; purchased Molecular Innovations; host or cells: purified from human plasma
As to the kind of experiment: Thrombin inhibition assay. Format: biochemical. How it is done:
as §2

A further experiment deals with T6, Human plasmin (Homo sapiens, UniProt P00747).
T6 construct: Human cationic trypsin and human plasmin were obtained from Sigma-Aldrich, and recombinant human matriptase was sourced from R&D Systems; purchased Sigma-Aldrich; host or cells: purified from human plasma
T6 sequence (P00747 581-810 limits assumed): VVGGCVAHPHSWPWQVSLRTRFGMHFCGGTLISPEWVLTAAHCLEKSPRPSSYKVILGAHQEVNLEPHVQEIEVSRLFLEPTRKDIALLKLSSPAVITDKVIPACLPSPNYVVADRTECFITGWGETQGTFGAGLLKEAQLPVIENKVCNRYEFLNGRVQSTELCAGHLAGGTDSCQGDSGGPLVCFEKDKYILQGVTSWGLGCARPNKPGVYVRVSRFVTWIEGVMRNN
T6 sequence (P00747 97-580 partner limits assumed): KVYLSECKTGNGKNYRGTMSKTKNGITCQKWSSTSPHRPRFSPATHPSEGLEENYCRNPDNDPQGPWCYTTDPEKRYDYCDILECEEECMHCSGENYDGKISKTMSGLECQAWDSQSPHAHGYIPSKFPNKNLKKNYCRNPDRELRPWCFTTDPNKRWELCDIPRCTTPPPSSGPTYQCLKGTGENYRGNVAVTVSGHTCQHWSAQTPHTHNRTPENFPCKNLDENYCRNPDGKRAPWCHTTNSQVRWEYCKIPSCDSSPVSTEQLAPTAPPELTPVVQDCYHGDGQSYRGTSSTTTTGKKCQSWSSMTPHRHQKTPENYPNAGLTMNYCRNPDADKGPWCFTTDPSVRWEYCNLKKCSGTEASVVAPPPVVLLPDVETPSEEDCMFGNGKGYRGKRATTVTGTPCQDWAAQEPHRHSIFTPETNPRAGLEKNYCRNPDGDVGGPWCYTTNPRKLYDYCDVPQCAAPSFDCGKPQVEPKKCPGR
As to the kind of experiment: Plasmin inhibition assay. Format: biochemical. How it is done: as §2

The structures appear in SMILES notation. Bridge positions count the residues as written; N and C are the ends. Peptide text beside a SMILES is read from it.

Here are results for one compound from patent publication US20240344241A1, “PROTEINACEOUS MOLECULES AND USES THEREFOR” (THE UNIVERSITY OF QUEENSLAND, priority 2021, published 2024).

In general, Ki refers to the equilibrium dissociation constant of an inhibitor or competing ligand from its target. In general, inhibition refers to the percentage by which the read-out fell short of the control. For orientation: IC50 means the concentration needed to halve the response being measured. What is called Kd is the concentration at which binding is half-saturated.

T2 sequence (P03951 388-625 limits assumed): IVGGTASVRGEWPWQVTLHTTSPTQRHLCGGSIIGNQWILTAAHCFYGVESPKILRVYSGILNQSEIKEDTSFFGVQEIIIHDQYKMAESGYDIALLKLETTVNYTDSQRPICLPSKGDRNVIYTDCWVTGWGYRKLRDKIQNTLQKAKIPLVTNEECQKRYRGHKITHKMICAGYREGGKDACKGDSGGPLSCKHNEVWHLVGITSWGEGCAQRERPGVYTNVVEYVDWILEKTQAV
T2 sequence (P03951 19-387 partner limits assumed): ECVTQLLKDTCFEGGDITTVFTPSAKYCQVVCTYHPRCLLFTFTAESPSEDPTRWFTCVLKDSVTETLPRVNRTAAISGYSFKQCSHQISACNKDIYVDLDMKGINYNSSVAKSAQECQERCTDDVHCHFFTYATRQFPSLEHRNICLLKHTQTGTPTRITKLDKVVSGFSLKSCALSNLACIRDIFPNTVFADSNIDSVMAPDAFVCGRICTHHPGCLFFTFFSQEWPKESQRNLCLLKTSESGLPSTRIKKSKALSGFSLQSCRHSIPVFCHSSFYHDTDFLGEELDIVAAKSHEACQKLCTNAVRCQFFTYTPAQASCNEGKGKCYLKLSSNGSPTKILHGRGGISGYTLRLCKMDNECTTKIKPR
T3 sequence (P00748 373-615 limits assumed, other chains not shown): as the sequence (P00748 373-615 limits assumed, other chains not shown) above

Take `CC[C@H](C)[C@@H]1NC(=O)CNC(=O)CNC(=O)[C@H](CC(=O)O)NC(=O)[C@H](Cc2ccc(O)cc2)NC(=O)CNC(=O)[C@H](CO)NC(=O)CNC(=O)[C@@H]2CSSC[C@@H]3NC(=O)[C@H](CC(=O)O)NC(=O)[C@H](CO)NC(=O)[C@H](CC(=O)O)NC(=O)[C@H](CCCNC(=N)N)NC(=O)[C@H](CCCNC(=N)N)NC(=O)[C@@H]4CSSC[C@H](NC(=O)[C@H]([C@@H](C)CC)NC(=O)[C@H](CSSC[C@H](NC1=O)C(=O)N1CCC[C@H]1C(=O)N[C@@H](CCCNC(=N)N)C(=O)N[C@@H]([C@@H](C)CC)C(=O)NCC(=O)N[C@@H](CCCNC(=N)N)C(=O)N[C@@H](CC(C)C)C(=O)N4)NC(=O)[C@H](C)NC(=O)CNC(=O)[C@@H]1CCCN1C3=O)C(=O)N[C@@H](CCCNC(=N)N)C(=O)N[C@@H](C)C(=O)N[C@@H]([C@@H](C)O)C(=O)N[C@@H](CCCNC(=N)N)C(=O)N[C@@H](Cc1ccccc1)C(=O)N2` [MCoFx1 cyclic] (cyclo(ACICRATRFCGSGYDGGICPRIGRLCRRDSDCPG); disulfide 2-19, 4-26, 10-32): the Ki at Rec. human matriptase was determined as 9.12 µM; on Human β-FXIIa (Table 7, FXIIa, cyclic form of the peptide, read-out: Ki (nM) Cyclic), 0.37 ± 0.04 nM. Further, the inhibition at 5 µM on Human FXIa (at 5 μM, read-out: percent inhibition FXIa) was 0%; on Human thrombin (at 5 μM, read-out: percent inhibition Thrombin), 2%; at Human plasmin (at 5 μM, read-out: percent inhibition Plasmin) it was 13%. Also, the IC50 on Human FXIa (read-out: IC50 FXIa), on Human thrombin (read-out: IC50 Thrombin) and at Human plasmin (read-out: IC50 Plasmin) was above 5 µM throughout. In addition, the Kd in experiment [1] (Table 7, FXIIa, cyclic form of the peptide, read-out: KD (nM) Cyclic) was 0.9 ± 0.04 nM. Moreover, in experiment [1] (ratio of KD values), the “fold higher affinity for FXIIa than MCoTI-II” value was determined as 60 fold. Further, the “fold more potent than MCoTI-II (FXIIa Ki)” value at Human β-FXIIa (ratio of Ki values) amounted to 350 fold. Also, the “difference in Ki FXIIa versus trypsin” value at Human β-FXIIa (selectivity) is on record as “exceeds three orders of magnitude”.
